According to US20030228632A1, “Stable RXR expressing cell line” (Allergan Sales, Inc., priority 2000, published 2003):

Key:
Format in all cases: cell-based, Rat
HircRXRα cells [1] = experiment: Cell growth of HircRXRα cells, direct microscopic observation; conditions: 1 nM
Description: (§1) The effect on cell growth was evaluated by plating either a HircB cells (as a control) or HircRXRα cells in 6 well plates with 0.5×10^5 cells per well in 10% FBS/DMEM/F12. The next day, the medium was replaced with a specified concentration of agonist, antagonist or both or with 0.1% DMSO in 10% FBS/DMEM/F12. Analyses were performed in triplicate.
[…] Alternatively, cell growth was measured using the MTT assay using absorbance at 590 nm. Mosmann, T., et al., J Immunol. Meth. (1983) 65:55-62.

HircRXRα cells [2] = experiment: Cell counts of HircRXRα cells after agonist treatment (FIG. 5); conditions: 1 nM, four days of treatment
Description: as §1

HircB cells = experiment: Cell counts of parental HircB cells after agonist treatment (FIG. 5); conditions: 1 nM, four days of treatment
Description: as §1

HircRXRα cells [3] = experiment: HircRXRα cell growth by MTT assay (FIGS. 6 and 7); conditions: five days of treatment, FIG. 6
Description: as §1
After incubation with agonist for 2 days, the change in cell number and morphology in the various HircRXRα cell samples were observed under the microscope. Alternatively, cell growth was measured using the MTT assay using absorbance at 590 nm. Mosmann, T., et al., J Immunol. Meth. (1983) 65:55-62.
FIGS. 6 and 7 show effects of RXRα ligands on HircRXRα cell growth as determined when cell growth was assessed by the MTT assay.

[4] = tested on: phosphorylated MEK in HircB cells; experiment: Insulin stimulated phosphorylation of MEK in HircB cells (Western blot, FIG. 8); conditions: 100 nM insulin, 0-30 minutes
Description: (§2) They were then incubated for various periods in the presence of 100 nM insulin and then lysed. Solubilized cell proteins were subjected to SDS-PAGE and transferred to nitrocellulose and immunoblotted using antibodies specific to phosphorylated forms of MEK and MAP kinase.
(§3) FIGS. 8 and 9 show the results. […] In the left panel, the parental HircB cell line was tested for phosphorylated MEK in the solubilized protein at 0 minutes (lane 1), 5 minutes (lane 2), 15 minutes (lane 3) and 30 minutes (lane 4) after treatment with 100 nM insulin.

[5] = tested on: phosphorylated MEK in HircRXRα cells; experiment: Insulin stimulated phosphorylation of MEK in HircRXRα cells (Western blot, FIG. 8); conditions: 100 nM insulin, 0-30 minutes
Description: as §2, §3

[6] = tested on: phosphorylated MAP-kinase in HircB cells; experiment: Insulin stimulated phosphorylation of MAP kinase in HircB cells (Western blot, FIG. 9); conditions: 100 nM insulin, up to 90 minutes
Description: as §2
(§4) Similar results are shown in FIG. 9 with respect to the phosphorylation of MAP-kinase in response to insulin.

[7] = tested on: phosphorylated MAP-kinase in HircRXRα cells; experiment: Insulin stimulated phosphorylation of MAP kinase in HircRXRα cells (Western blot, FIG. 9); conditions: 100 nM insulin, up to 90 minutes
Description: as §2, §4

Row | Molecule | effect on cell growth (microscopic observation) (HircRXRα cells [1]; after four days) | effect on cell growth (microscopic observation) (HircRXRα cells [1]; after two days) | growth (cell counts) relative to no agonist (HircRXRα cells [2]) | effect on growth (cell counts) (HircB cells) | effect on cell growth (MTT assay) (HircRXRα cells [3]; 1 nM) | effect on cell growth (MTT assay) (HircRXRα cells [3]; 100 nM) | phosphorylated MEK after insulin treatment [4] | phosphorylated MEK after insulin treatment [5] | phosphorylated MAP-kinase after insulin treatment [6] | phosphorylated MAP-kinase after insulin treatment [7]
1 | CC(/C=C/[C@@H]1C[C@]1(C)c1ccc2c(c1)C(C)(C)CCC2(C)C)=C\C(=O)O [AGN 4204] | the reduction in growth was maintained | greatly reduced growth | approximately one-third | no demonstrable effect | significant reduction in growth | further reduction in growth |  |  |  | 
2 | insulin: insulin used at 100 nM to stimulate MEK and MAP kinase phosphorylation |  |  |  |  |  |  | diminished considerably by 30 minutes | less reduced after 30 minutes than in the HircB cell line | virtually gone after 90 minutes | substantially maintained over the 90-minute period
